# A melting point compilation (Tetko et al.; mined from patent text by program, amines drawn as free bases though some values may be those of a salt)
row,Structure (SMILES),melting point [°C]
1,O=C(Nc1ccc(Oc2ccnc(N3CCC(O)CC3)n2)c2ccccc12)c1cc(F)cc(N2CCOCC2)c1,106 to 108
2,CC(=O)Nc1c(Cl)cc(C(C)=O)c2c1OCCO2,181 to 182
3,COc1cc(OC)c2c(=O)[nH]c(-c3ccc(OCCNC(C)C)c(-c4ccc(S(C)(=O)=O)cc4C)n3)nc2c1,202 to 203
4,NC(=O)c1nnn(Cc2ccc(C(=O)c3c(Cl)cccc3Cl)cc2)c1N,165 to 167
5,Nc1nc2c(ncn2OC(CO)CCP(=O)(O)O)c(=O)[nH]1 (stereo unspecified),177 to 178
6,Brc1ccc(-c2ccc(-c3ccc(Br)o3)cc2)o1,155 to 157
7,NS(=O)(=O)c1cc(C(=O)c2cc3ccccc3o2)ccc1Cl,167 to 170
8,O=C(Nc1ccc2c(c1)CCSCC2)OCc1ccccc1,118 to 120
9,CCCC(C)(Oc1ccccc1)C(=O)OC1CC(O)C=C2C=CC(C)C(CCC3CC(O)CC(=O)O3)C21 (mixture of isomers),151 to 153
10,CCOC(=O)c1ncn2c1CN=C(c1ccccc1F)c1cc(I)ccc1-2,200 to 202
11,N#CC(Cc1c(Cl)cccc1Cl)C(=O)O (stereo unspecified),106 to 108
12,Cc1nc(NC(=O)c2ccccc2)n(C)c(=O)c1CCN1CCC(=C(c2ccc(F)cc2)c2ccc(F)cc2)CC1,240
13,CSc1nc2c(NCc3ccccc3)ncnc2n1C1OC(CO)C(O)C1O (stereo unspecified),81 to 84
14,Clc1cc(Cl)c(Cl)nn1,57 to 58
15,CC(C)c1cccc(C(C)C)c1NC(=O)N(C(C)C)C1COc2ccccc2C1 (stereo unspecified),169 to 172
16,Cc1ccc(S(=O)(=O)Nc2nc(-c3ccc(OCc4ccccc4)cc3)cs2)cc1,166 to 167
17,O=C(Nc1cccc(C(F)(F)F)c1)c1cccnc1NCc1ccncc1,152 to 153
18,Cc1ccccc1-c1ccc2c(c1)c(C(=O)C(=O)O)cn2Cc1ccc(C(C)(C)C)cc1,97 to 98
19,C=C(c1ccc(-c2nnc(N)s2)cc1)C(O)(Cn1cncn1)c1ccc(F)cc1F (stereo unspecified),118 to 121
20,COc1cc2c(cc1OC)-c1[nH]c3ccc(O)cc3c1C2=O,> 260
21,Cc1c(C(=O)c2sc(Nc3ccc(S(N)(=O)=O)cc3)nc2N)sc2ccccc12,274 to 276
22,CCN(CC)CCCC1CCN(CCNC(=O)N2c3ccccc3C(=O)Nc3cccnc32)CC1,165 to 166
23,Nc1ccccc1Oc1ccc2c(c1)OCC(=O)N2,149 to 150
24,CN1C(=O)N(CC(COc2ccc(-c3ccc(OC(F)(F)F)cc3)cc2)N(O)C=O)C(=O)C1(C)C (stereo unspecified),114 to 118

row,Structure (SMILES),melting point [°C]
1,Cc1nc(-n2ccc(OCc3ccc(OC(F)F)cc3)cc2=O)sc1C(=O)NCc1ccc(F)cc1,242 to 244
2,Cc1nc(-n2cc(C(=O)c3ccccc3)nn2)sc1C(=O)NCc1ccccc1,176 to 178
3,Cc1nc2ccc3c(c2o1)OC(CN1CCC2(CC1)C(=O)NCN2c1ccccc1)CO3 (stereo unspecified),240
4,CN1CCCCC1CCc1ccccc1NC(=O)c1ccc(F)cc1 (stereo unspecified),116
5,Cc1nc2cc(N)c(N)cc2n1C,212
6,CS(=O)(=O)c1ccc(-c2cnn(-c3ccc(F)cc3)c(=O)c2COc2ccc(F)cc2)cc1,65 to 80
7,CSc1ncccc1OCCO,80
8,C=C1[C@@H](NC(=O)C(F)(F)F)CC(O)O[C@H]1C (stereo partly specified),168 to 170
9,CC(C)(C)Oc1ccc(C(=O)N[C@H]2CC[C@H](CCN3CCC(c4cccc5c4CCO5)CC3)CC2)cc1,216
10,CCOC(=O)C=Cc1cc(Cl)ccc1Cl,34 to 36
11,CC1NC(=S)NN=C1c1ccccc1 (stereo unspecified),213 to 214
12,COC(=O)CCc1oc2ccc(C#N)cc2c1C(=O)c1ccc(OC)cc1,95 to 98
13,C=CCn1nc(CCCC)c(Cc2ccc(-c3ccccc3-c3nnn[nH]3)cc2)c1COC,39 to 41
14,COc1ccc(Cl)c(Oc2c(Cl)ncnc2Cl)c1,88 to 89
15,COC(=O)c1cncn1C1c2ccccc2C(F)(F)C1(C)C (stereo unspecified),96 to 97
16,Cc1ncc(C=O)c(N)n1,191 to 192
17,COc1ccc(C(=O)Nc2ccccc2)cc1NC(=S)Nc1cccc(C(F)(F)F)c1,177 to 178
18,CCOC(=O)c1c(O)c2cc(F)cnc2n(Cc2ccc(OC)cc2)c1=O,163
19,CC(C)(C)C1=C(C#N)C(c2cccc3nonc23)c2c[nH]nc2N1 (stereo unspecified),204
20,O=C(Cc1ccc(Cl)cc1)NC1N=C(c2ccccc2)c2ccccc2NC1=O (stereo unspecified),238 to 240
21,NC(=O)[C@@H]1C[C@H](F)CN1C(=O)CCl,95 to 96
22,COc1ccc(-c2ccc3c(C(=O)N(C)C)cccc3c2)cc1,113 to 116
23,CC(=O)NCc1ccc(CN2CCN(c3ccc(F)cc3)CC2)cc1N,163 to 164
24,O=C(Cn1nnnc1-c1ccccc1)OCCO,54 to 55

row,Structure (SMILES),melting point [°C]
1,CC(=O)OCc1ccc(C=Cc2csc3ccccc23)s1,66 to 68
2,COC(=O)c1sc2ccc(NC=O)cc2c1N,202 to 204
3,Cc1ncn(CCCOc2c(C)cc(-c3nnn(C)n3)cc2C)n1,101 to 103
4,O=C(Nc1ccc(F)cc1)NN(c1ccccc1)c1ccccc1,214
5,COc1cc(Br)ccc1-c1ccc(Br)cc1N,94.5 to 97
6,COC(CNC(=O)c1ccc(C(=O)N2CCN(c3ncccc3NC(C)C)CC2)nc1)OC,167 to 169
7,CC(C)(C)OC(=O)NC(C)(C)c1ccc(-c2nc(Nc3ccc(CCn4ccnc4)cc3)ncc2C#N)cc1,124
8,CCOC(=O)c1cccc(-c2ccc3c(c2)N(C(=O)Cc2cccc(C(F)(F)F)c2)CC3)c1,222 to 223
9,CN(C)C(=O)COC(=O)c1ccc(Cl)cc1OCC(=O)N(C)C,140 to 141
10,c1ccc2cc(-c3ccc(-c4nc(-c5ccc(-c6ccc7ccccc7c6)cc5)n(-c5cccc6ccccc56)n4)cc3)ccc2c1,> 250
11,COc1ccc2c(-c3cccc(F)c3)noc2c1Cl,149 to 150
12,CC1(COCc2ccccc2)COC(C)(C(=O)N(C(N)=O)c2ccccc2)O1 (stereo unspecified),91 to 94
13,O=c1c(O)c(-c2ccco2)oc2ccccc12,173 to 174
14,O=C(O)CCn1c(=O)n(CCCN2CCC(OC(c3ccccc3)c3ccccc3)CC2)c(=O)c2ccccc21,237 to 238
15,CC(=O)SCC(CC(C)C)C(=O)NCCCCCCCC(=O)N[C@@H](CCCNC(=N)N)C(=O)O (stereo partly specified),85 to 102
16,OC(Cn1cncn1)(Cn1cncc1C(F)(F)F)c1ccc(Cl)cc1Cl (stereo unspecified),190 to 192
17,N#Cc1csc(-c2csc(C(O)(Cn3cncn3)c3ccc(F)cc3F)c2)n1 (stereo unspecified),172 to 173
18,Cc1cc(Sc2sc(-c3ccc(C(F)(F)F)cc3)nc2C)ccc1Cc1nn[nH]n1,248
19,OCCN1CCC(OC(c2ccccc2)c2ccccc2)CC1,83 to 85
20,COC(=O)CCCc1cc2nc(Cl)ccc2n1S(=O)(=O)c1ccc2snnc2c1,219
21,Cc1sc(C)c(CCl)c1CCl,68 to 70
22,CCSc1nc2ccc(N)cc2s1,77 to 78
23,CC(C)C1N2C=CC=CC2=CC1(C=C(Br)Br)c1ccc(F)cc1 (stereo unspecified),134 to 135
24,COc1ccc(C=C2NC(=O)NC2=O)cc1OCc1ccccc1,242 to 244

row,Structure (SMILES),melting point [°C]
1,Cc1cc(N)ccc1-c1ccc(-c2ccc(N)cc2C)o1,174 to 176
2,Cc1c(-c2ccc(Cl)cc2F)sc2nc(N)[nH]c(=O)c12,320 to 340
3,COC(=O)c1ccc(OC)c(F)c1F,66 to 68
4,COc1ccc(OC(=O)c2ncn3c2[C@@H]2CCCN2C(=O)c2c(Cl)cccc2-3)cc1,210 to 211
5,CN1CCN(c2cc(Br)cc3c2c(=O)n(Cc2ccccc2Cl)c(=O)n3Cc2ccccc2)CC1,104 to 108
6,NN=Cc1ccc(C(=O)NC2CCC3(CC2)CN(CC(=O)O)C(=O)O3)cc1 (stereo unspecified),280 to 284
7,O=C(Nc1ccc(OCc2ccccn2)nc1)N1CCc2ccc(C(F)(F)F)cc21,178 to 179
8,Clc1cc(CC(Cl)Cl)cnc1Cl,89 to 90
9,Cc1coc2ncnc(NCCc3ccc(Cl)cc3)c12,140
10,COc1ccc2c(c1)c1c3c(c(-c4ccccc4Cl)cc1n2CCC(=O)NS(C)(=O)=O)C(=O)NC3=O,293 to 295
11,CNC(=O)c1nc(C)n2c1CN=C(c1ccccc1)c1cc(Cl)ccc1-2,260 to 263
12,CCNC(=O)n1cc(F)c(NC(C)=O)nc1=O,233 to 235
13,COc1cccc(-c2cc(-c3ccoc3)on2)c1,36 to 37
14,Cc1cccc(CCCCCCCCC(=O)NO)c1,49 to 50
15,CS(=O)(=O)c1cc(C(=O)O)ccc1Oc1ccc(C(=S)Cc2ccc3ccccc3n2)cc1,210 to 214
16,CN(C)c1ccc2c(c1)OCCC2=O,109 to 120
17,O=C(O)C1=Cc2c(Cl)ccc(Cl)c2OC1C(F)(F)F (stereo unspecified),206 to 207
18,Cc1ncc([N+](=O)[O-])n1CCN(CCCCN(CCn1c([N+](=O)[O-])cnc1C)CCn1c([N+](=O)[O-])cnc1C)CCn1c([N+](=O)[O-])cnc1C,194 to 196
19,CC1(C)CN2C(=O)c3ccccc3C(O)(c3ccc(F)cc3)C2=N1 (stereo unspecified),168 to 170
20,CC(C)(C)c1cc(C(=O)NNC(N)=S)cc(C(C)(C)C)c1O,210 to 211
21,CCC(=O)NC[C@H]1CN(c2ccc3c(c2)C[C@@H](C)N3C(=O)OCc2ccccc2)C(=O)O1,181 to 183
22,CCOC(=O)Nc1nc(C)c(-c2nc3ccccc3c(=O)n2-c2ccccc2Cl)s1,246 to 247
23,C[C@H]1C[C@@H](Nc2ccccc2)c2ccccc2N1C(=O)c1ccncc1 (relative stereo),121
24,CCCc1cc2cc(O)c(F)cc2c(Oc2ccc(/C=C/C(N)=O)cc2)c1-c1ccccc1,121 to 124
